Assay results reported in patent publication US8691758B2, “Inhibitors of serine proteases, particularly HCV NS3-NS4A protease” (Vertex Pharmaceuticals Incorporated, priority 2003, dated 2014).

Key:
[1] = biological target: HCV NS3-NS4A protease (tNS3 with KK4A) (Hepatitis C virus genotype 1a, UniProt P27958); experiment: HCV Ki assay (HPLC microbore separation of 5AB substrate and products); type: biochemical; conditions: 25 nM tNS3, 25 μM KK4A, 25 μM 5AB substrate, 20 min at 30 C
Procedure: HPLC Microbore Method for Separation of 5AB Substrate and Products
• NH2-Glu-Asp-Val-Val-(alpha)Abu-Cys-Ser-Met-Ser-Tyr-COOH
A stock solution of 20 mM 5 AB (or concentration of your choice) was made in DMSO w/0.2M DTT. This was stored in aliquots at −20 C.
Buffer: 50 mM HEPES, pH 7.8; 20% glycerol; 100 mM NaCl
Total assay volume was 100 μL
The buffer, KK4A, DTT, and tNS3 were combined; distributed 78 μL each into wells of 96 well plate. This was incubated at 30 C for ˜5-10 min.
2.5 μL of appropriate concentration of test compound was dissolved in DMSO (DMSO only for control) and added to each well. This was incubated at room temperature for 15 min.
Initiated reaction by addition of 20 μL of 250 μM 5AB substrate (25 μM concentration is equivalent or slightly lower than the Km for 5 AB). • Incubated for 20 min at 30 C. • Terminated reaction by addition of 25 μL of 10% TFA • Transferred 120 μL aliquots to HPLC vials
Separated SMSY product from substrate and KK4A by the following method:
Microbore Separation Method:
• Instrumentation: Agilent 1100 • Degasser G1322A • Binary pump G1312A • Autosampler G1313A • Column thermostated chamber G1316A • Diode array detector G1315A • Column: • Phenomenex Jupiter; 5 micron C18; 300 angstroms; 150×2 mm; P/O 00F-4053-B0 • Column thermostat: 40 C • Injection volume: 100 μL • Solvent A=HPLC grade water+0.1% TFA • Solvent B=HPLC grade acetonitrile+0.1% TFA
• Stop time: 17 min • Post-run time: 10 min.

[2] = test system: Cells containing hepatitis C virus (HCV) replicon; experiment: HCV replicon cell assay (Taqman RT-PCR of HCV RNA); type: cell-based; conditions: concentration at which 50% inhibition of HCV RNA level is observed, 48-hour incubation, 2% FBS
Procedure: HCV Replicon Cell Assay Protocol
Cells containing hepatitis C virus (HCV) replicon were maintained in DMEM containing 10% fetal bovine serum (FBS), 0.25 mg per ml of G418, with appropriate supplements (media A).
On day 1, replicon cell monolayer was treated with a trypsin:EDTA mixture, removed, and then media A was diluted into a final concentration of 100,000 cells per ml wit. 10,000 cells in 100 ul were plated into each well of a 96-well tissue culture plate, and cultured overnight in a tissue culture incubator at 37° C.
On day 2, compounds (in 100% DMSO) were serially diluted into DMEM containing 2% FBS, 0.5% DMSO, with appropriate supplements (media B). The final concentration of DMSO was maintained at 0.5% throughout the dilution series.
Media on the replicon cell monolayer was removed, and then media B containing various concentrations of compounds was added. Media B without any compound was added to other wells as no compound controls.
Cells were incubated with compound or 0.5% DMSO in media B for 48 hours in a tissue culture incubator at 37° C. At the end of the 48-hour incubation, the media was removed, and the replicon cell monolayer was washed once with PBS and stored at −80° C. prior to RNA extraction.
Culture plates with treated replicon cell monolayers were thawed, and a fixed amount of another RNA virus, such as Bovine Viral Diarrhea Virus (BVDV) was added to cells in each well. RNA extraction reagents (such as reagents from RNeasy kits) were added to the cells immediately to avoid degradation of RNA. Total RNA was extracted according the instruction of manufacturer with modification to improve extraction efficiency and consistency. Finally, total cellular RNA, including HCV replicon RNA, was eluted and stored at −80° C. until further processing.
A Taqman real-time RT-PCR quantification assay was set up with two sets of specific primers and probe. One was for HCV and the other was for BVDV. Total RNA extractants from treated HCV replicon cells was added to the PCR reactions for quantification of both HCV and BVDV RNA in the same PCR well. Experimental failure was flagged and rejected based on the level of BVDV RNA in each well. The level of HCV RNA in each well was calculated according to a standard curve run in the same PCR plate. The percentage of inhibition or decrease of HCV RNA level due to compound treatment was calculated using the DMSO or no compound control as 0% of inhibition. The IC50 (concentration at which 50% inhibition of HCV RNA level is observed) was calculated from the titration curve of any given compound.

Sequence of HCV NS3-NS4A protease (tNS3 with KK4A) (P27958 1658-1711): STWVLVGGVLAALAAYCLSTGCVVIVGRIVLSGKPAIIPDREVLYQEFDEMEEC
Sequence of HCV NS3-NS4A protease (tNS3 with KK4A) (P27958 1027-1208): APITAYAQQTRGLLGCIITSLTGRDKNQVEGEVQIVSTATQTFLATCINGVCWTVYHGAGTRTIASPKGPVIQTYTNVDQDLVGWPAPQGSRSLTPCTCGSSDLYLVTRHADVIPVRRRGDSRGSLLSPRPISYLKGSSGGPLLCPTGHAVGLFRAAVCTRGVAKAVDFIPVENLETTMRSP

CCCC(NC(=O)[C@@H]1CC2(CN1C(=O)[C@@H](NC(=O)[C@@H](NC(=O)c1cnccn1)C1CCCCC1)C(C)(C)C)SCCCS2)C(=O)C(=O)NC1CC1 (stereo partly drawn) [Compound 6a]
Ki [1]: < 500 nM

CCC[C@H](NC(=O)[C@@H]1CC2(CN1C(=O)[C@@H](NC(=O)[C@@H](NC(=O)c1cnccn1)C1CCCCC1)C(C)(C)C)SCCCS2)C(=O)C(=O)NC1CC1 [Compound 2a, 2-(2-{2-cyclohexyl-2-[(pyrazine-2-carbonyl)-amino]-acetylamino}-3,3-dimethyl-butyryl)-6,10-dithia-2-azaspiro[4.5]decane-3-carboxylic acid(1-cyclopropylaminooxalyl-butyl)-amide]
Ki [1]: < 500 nM | IC50 [2]: < 500 nM

CCC[C@H](NC(=O)[C@@H]1CC2(CN1C(=O)[C@@H](NC(=O)[C@@H](NC(=O)c1cnccn1)C1CCCCC1)C(C)(C)C)SCCS2)C(=O)C(=O)NC1CC1 [Compound 7a]
Ki [1]: < 500 nM | IC50 [2]: < 500 nM

CCC[C@H](NC(=O)[C@@H]1CC2(CN1C(=O)[C@@H](NC(=O)[C@@H](NC(=O)c1cnccn1)C1CCCCC1)C(C)(C)C)SCCCS2)C(=O)C(N)=O [Compound 3a]
Ki [1]: < 500 nM | IC50 [2]: < 500 nM

CCC[C@H](NC(=O)[C@@H]1CC2(CN1C(=O)[C@@H](NC(=O)[C@@H](NC(=O)c1[nH]c(C)c(C)c1C(C)=O)C1CCCCC1)C(C)(C)C)SCCCS2)C(=O)C(=O)NC1CC1 [Compound 1a, 2-(2-{2-[(3-acetyl-4,5-dimethyl-1H-pyrrole-2-carbonyl)-amino]-2-cyclohexyl-acetylamino}-3,3-dimethyl-butyryl)-6,10-dithia-2-aza-spiro[4.5]decane-3-carboxylic acid(1-cyclopropylaminooxalyl-butyl)-amide]
Ki [1]: < 500 nM | IC50 [2]: < 500 nM

CCC[C@H](NC(=O)[C@@H]1CC2(CN1C(=O)[C@@H](NC(=O)[C@@H](NC(=O)c1[nH]c(C)c(C)c1C(C)=O)C1CCCCC1)C(C)(C)C)SCCCS2)C(=O)C(N)=O [Compound 4a]
Ki [1]: < 500 nM | IC50 [2]: < 500 nM

CCC[C@@H](NC(=O)[C@@H]1CC2(CN1C(=O)[C@@H](NC(=O)[C@@H](NC(=O)c1cnccn1)C1CCCCC1)C(C)(C)C)SCCCS2)C(=O)C(=O)NC1CC1 [Compound 5a]
Ki [1]: < 500 nM
